{
  "source": "patent EP3409671B1",
  "about": "“ISOTHIAZOLE DERIVATIVES AS GPR120 AGONISTS FOR THE TREATMENT OF TYPE II DIABETES” (Janssen Pharmaceutica NV, priority 2014, dated 2015)",
  "target": "T1, Human GPR120 short form (Homo sapiens, UniProt Q5NUL3)",
  "T1 construct": "expressed in transfected cells",
  "T1 sequence (Q5NUL3 1-361)": "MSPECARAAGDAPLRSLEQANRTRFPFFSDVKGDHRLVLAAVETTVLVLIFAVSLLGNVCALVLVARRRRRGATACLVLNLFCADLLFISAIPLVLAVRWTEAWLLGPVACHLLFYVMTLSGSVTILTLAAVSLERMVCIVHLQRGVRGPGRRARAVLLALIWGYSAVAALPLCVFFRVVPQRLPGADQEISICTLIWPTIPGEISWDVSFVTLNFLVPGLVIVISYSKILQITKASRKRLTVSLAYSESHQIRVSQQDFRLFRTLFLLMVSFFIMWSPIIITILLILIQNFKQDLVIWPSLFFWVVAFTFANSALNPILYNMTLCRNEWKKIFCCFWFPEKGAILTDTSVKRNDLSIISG",
  "test": "Human GPR120 Calcium Flux Assay, Procedure Calcium A",
  "type": "cell-based",
  "details": "HEK-293 cells expressing Human GPR120 short form, FLIPR, 2500 cells / well; read-out: GPR120 Ca^2+ Assay A EC50",
  "description": "This in vitro assay serves to assess test compound agonist activity against the short splice variant (SVS with Accession number NM_001195755.1 confirmed by sequencing data) of the GPR120 receptor. The Human Short splice variant #2 (NM_001195755.1) is missing an in-frame coding exon compared to variant 1 (the Human Long splice variant NM_181745.3), resulting in a shorter isoform (GPR120-S) lacking a 16 aa protein segment compared to isoform GPR120-L. The assay platform utilizes HEK-293 cells stably transfected to express the Human GPR120 short form. These cells are first loaded with the Ca^+2 sensitive dye, Fluo-4 NW. Upon stimulation, intracellular released Ca^+2 can bind to the dye and alter its fluorescence intensity. This increase in fluorescence signal, and thus the flux in intracellular [Ca^2+], is detected and quantitated by fluorescence imaging using a FLIPR reader. The effect of the agonist is measured as a function of concentration and used to calculate an EC50 based upon a response curve.\nIn this procedure 2500 cells / well were employed.\nA Human GPR120 clone (Genbank accession number NM _001195755.1) was placed into the pcDNA3.1 mammalian expression vector carrying the neomycin resistance gene. A stable mammalian cell was generated by placing the above clone into a HEK293 background. Clonal cells responding to long chain fatty acids had expression levels of GPR120 confirmed by RT-qPCR. Human HEK-GPR120 cells were cultured in Dulbecco's Modified Eagle's Medium (DMEM)/F12 medium supplemented with 10% fetal bovine serum (FBS), 1% L-Glutamine and 1% penicillin/streptomycin and 0.5 mg/ml G-418. Cells were split 2 times a week to keep the cells in the log-phase growth.\nIn preparation for the assay, HEK cells stably transfected with Human GPR120 (2.5K cells per well in 25uL growth medium) were seeded into 384-well plates and then incubated overnight (37°C, 5% CO2). The next day, the media was changed to 20 µL assay buffer and the cell starved for 1h at 37°C. […]\nThe assay was performed on a FLIPR plate reader using the following parameters. Baseline was read for 10 seconds at 1 sec intervals. The program was set to transfer 10µL of ligand from compound plate to cell plate after baseline reading. […] After compound addition, each well was read for 300 sec, with measurements collected at 1 sec intervals.\nThe kinetic data from the FLIPR was based upon a 5 minute window for data collection. The fluorescence of each sample well was used for individual calculations of a normalized RFU value, which was defined as maximum response minus the minimum response. The normalized fluorescence reading (RFU) was calculated as follows: RFU = Fmax−Fmin [formula] […]",
  "data": [
    {"smiles": "O=C(O)CCc1cc(F)c(OCc2c(Cl)nsc2-c2ccc(Cl)cc2)c(F)c1", "note": "[Cpd 75, 3-(4-[[3-chloro-5-(4-chlorophenyl)-1,2-thiazol-4-yl]methoxy]-3,5-difluorophenyl)propanoic acid]", "values": [
      {"measurement": "EC50", "value": 42, "unit": "nM"}
    ]},
    {"smiles": "O=C(O)CCc1ccc(OCc2c(C(F)(F)F)nsc2-c2ccc(Cl)cc2)c(Cl)c1Cl", "note": "[Cpd 55, 3-(2,3-dichloro-4-[[5-(4-chlorophenyl)-3-(trifluoromethyl)-1,2-thiazol4-yl]methoxy]phenyl) propanoic acid]", "values": [
      {"measurement": "EC50", "value": 231, "unit": "nM"}
    ]}
  ]
}
